Entries after “also recorded” stand apart in the source; their conditions may differ. Where two headings read alike, the source gives them in different places.
What was measured:
[1] = target: T1, mushroom tyrosinase (Agaricus bisporus, UniProt C7FF04); assay: In vitro mushroom tyrosinase inhibitory assay (L-tyrosine and L-DOPA as substrates); assay type: biochemical; conditions: for IC50: mean ± SD of triplicates
T1 construct: purchased Sigma Aldrich
Experimental: Mushroom tyrosinase inhibitory activity was assessed by the method described by Kang et al. 2004 [17] with slight modifications.

[2] = ABTS•+ radical scavenging assay; conditions: mean ± SD of triplicates
Description: This assay assesses the ability of different substances to scavenge ABTS radical cations (ABTS^•+) in comparison with the positive control, Trolox. The method was developed by Re et al. 1999 [21].

[3] = DPPH radical scavenging activity; conditions: mean ± SD of triplicates
Experimental: DPPH radical scavenging activity was evaluated by the method described by Blois, 1958 [19] with slight modifications. L-Ascorbic acid was used as a positive control.

[4] = ONOO− radical scavenging assay; conditions: mean ± SD of triplicates
Experimental: ONOO^− scavenging activity was assessed by a modified version of Kooy’s method, which monitors the production of fluorescent rhodamine 123 from non-fluorescent DHR 123 in the presence of ONOO^−. L-Penicillamine was used as a positive control.

[5] = tested on: melanin synthesis; set-up: method as in PMID 19490939; conditions: at 250 μM; cited from earlier work
[6] = tested on: IBMX-treated cells; set-up: method as in PMID 19361156; conditions: cited from earlier work
[7] = tested on: tyrosinase; set-up: method as in PMID 19490939; conditions: at 50 μM; cited from earlier work
[8] = tested on: cellular tyrosinase of B16F10 cells; assay: Cellular TYR activity assay (L-DOPA oxidase activity); assay type: cell-based, mouse; conditions: for Cellular tyrosinase activity of α-MSH-stimulated B16F10 cells: 6.25-100 μM, α-MSH 3 μM, 24 h; for Inhibition of cellular tyrosinase compared with arbutin (500 μM): compound at 100 μM, α-MSH-stimulated B16F10 cells
Experimental: Cellular TYR activity was measured as L-DOPA oxidase activity by a previously described method with some modifications. Cells were seeded at 1 × 10^4 cells/well in a 24-well plate, incubated for 24 h and then stimulated with α-MSH (3 μM) in the presence or absence of 974-A, phlorofucofuroeckol-A, or eckol for 24 h. After treatment, the cells were washed with cold PBS and lysed with RIPA buffer. The cell lysates were centrifuged at 12,000 rpm for 10 min, and the supernatant was used as the cellular TYR solution. The reaction mixture, which contained 80 μL of the cell lysate and 20 μL of L-DOPA (20 mM), was incubated at 37 °C for 45 min. After the incubation, dopachrome formation was measured spectrophotometrically every 10 min for 45 min at 450 nm on a microplate reader (Molecular Devices). TYR activity was calculated as a percentage of the control.

[9] = tested on: B16F10 melanoma cells; assay: Melanin content assay in α-MSH-stimulated cells; assay type: cell-based, mouse; conditions: for Melanin content of α-MSH-stimulated B16F10 cells: 6.25-100 μM, α-MSH 3 μM, 24 h; for Inhibition of melanin content compared with arbutin (500 μM): compound at 100 μM, α-MSH-stimulated B16F10 cells
Experimental: The intracellular melanin content was determined according to a procedure described previously with minor modifications. Briefly, B16F10 cells were seeded in a 24-well plate at 1 × 10^4 cells/well and incubated for 24 h in DMEM containing 10% FBS. Cells were pretreated with various concentrations of 974-A, phlorofucofuroeckol-A, and eckol for 1 h, and then were stimulated with α-MSH (3 μM) for 24 h. The cells were washed with PBS, and were dissolved in 1 N NaOH containing 10% DMSO by being boiled at 80 °C for 30 min. The cell lysates were centrifuged at 14,000 rpm for 10 min, and the absorbance of the supernatant was measured at 405 nm on a microplate reader (Molecular Devices). The absorbance was normalized to the total protein content for the determination of the melanin content.

[10] = target: T1, mushroom tyrosinase; assay: Kinetic analysis of mushroom tyrosinase inhibition (Lineweaver-Burk and Dixon plots); assay type: biochemical; conditions: for Ki: Dixon plot; for Type of inhibition, L-DOPA / Type of inhibition, L-Tyrosine: Lineweaver-Burk plot
Experimental: The inhibition mode and inhibition constant (Ki) for mushroom tyrosinase inhibition were calculated from the Lineweaver-Burk and Dixon plots. Kinetic parameters were obtained for various concentrations of the substrates (L-tyrosine and L-DOPA) and inhibitors (974-A, phlorofucofuroeckol-A and eckol). Graphs were generated with Sigma plot 12.0 (SPSS Inc., Chicago, IL, USA).

[11] = tested on: B16F10 melanoma cells; assay: Cell viability (MTT) assay; assay type: cell-based, mouse; conditions: 6.25, 12.5, 25, 50, and 100 μM, with or without α-MSH co-treatment
Experimental: B16F10 mouse melanoma cells were obtained from the American Type Culture Collection (Manassas, VA, USA). Cells were cultured at 37 °C in high-glucose DMEM supplemented with 10% FBS, 100 U/mL penicillin, and 100 μg/mL streptomycin in a humidified atmosphere containing 5% CO2. The MTT assay was used to determine the cytotoxicity of 974-A, phlorofucofuroeckol-A, and eckol according to previously described methods with slight modifications. Briefly, B16F10 cells were seeded in a 96-well plate at 1 × 10^4 cells/well and incubated for 24 h in DMEM supplemented with 10% FBS. […] After 24-h incubation of the samples, the FBS-free DMEM was suctioned, and the cells were treated with an MTT solution (100 μL at 0.5 mg/mL in phosphate-buffered saline (PBS)) and incubated for 2 h. The proportion of surviving cells was determined after the medium was replaced with 100 µL of DMSO. […] The absorbance was measured at 570 nm on a microplate reader (Molecular Devices, Sunnyvale, CA, USA).

[12] = tested on: tyrosinase, TRP-1, and TRP-2 expression in B16F10 cells; assay: Western blot analysis of melanogenic enzymes; assay type: cell-based, mouse; conditions: 12.5–50 μM, α-MSH-stimulated B16F10 cells
Experimental: B16F10 cells were stimulated with α-MSH in the presence or absence of compounds for the indicated times. The cells were then washed with ice-cold PBS and lysed with RIPA buffer on ice for 30 min. After centrifugation of the samples at 12,000× g for 20 min, the protein concentrations of the supernatants were determined. Aliquots of protein were resolved by sodium dodecyl sulfate-polyacrylamide gel electrophoresis (SDS-PAGE) and transferred onto a nitrocellulose membrane. The membrane was washed with Tris-buffered saline (TBS; 10 mM Tris-HCl, 150 mM NaCl, pH 7.5) supplemented with 0.05% Tween 20 (TBST), blocked with 5% skim milk (w/v) in TBST for 2 h and incubated for approximately 20 h with the primary antibodies. The immunoblots were then incubated with the appropriate secondary antibody coupled to horseradish peroxidase for 2 h, and protein levels were detected with an ECL detection kit. Densitometric analysis of data from at least three independent experiments was performed with a cooled CCD camera system and CS analyzer version 3.00 software. Fold-increases in protein expression were calculated versus normal controls. The experiments were repeated three times for each experimental condition.

[13] = tested on: cellular melanin and tyrosinase; set-up: method as in earlier work; conditions: previous study; cited from earlier work
[14] = substrate L-DOPA, read-out: IC50 Value, Mushroom Tyrosinase Inhibition, L-DOPA
[15] = substrate L-tyrosine, read-out: IC50 Value, Mushroom Tyrosinase Inhibition, L-Tyrosine
[16] = substrate L-DOPA, read-out: Ki Value, L-DOPA
[17] = substrate L-tyrosine, read-out: Ki Value, L-Tyrosine
[18] = IC50 Value, Mushroom Tyrosinase Inhibition, L-DOPA, substrate L-DOPA
[19] = IC50 Value, Mushroom Tyrosinase Inhibition, L-Tyrosine, substrate L-tyrosine

T1 sequence (C7FF04 1-392 limits assumed): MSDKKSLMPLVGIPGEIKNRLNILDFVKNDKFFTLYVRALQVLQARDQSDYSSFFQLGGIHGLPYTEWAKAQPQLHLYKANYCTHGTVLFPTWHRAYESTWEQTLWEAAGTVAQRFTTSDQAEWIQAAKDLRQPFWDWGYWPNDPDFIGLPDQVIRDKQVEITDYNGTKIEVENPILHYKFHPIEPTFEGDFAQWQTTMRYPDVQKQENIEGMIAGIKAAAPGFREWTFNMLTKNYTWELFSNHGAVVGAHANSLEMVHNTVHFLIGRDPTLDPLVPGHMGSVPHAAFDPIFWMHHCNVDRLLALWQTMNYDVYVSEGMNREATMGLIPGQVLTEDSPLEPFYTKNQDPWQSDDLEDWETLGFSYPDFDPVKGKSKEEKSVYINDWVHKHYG

Row | Compound | IC50 [2] | IC50 [3] | IC50 [4] | Cellular tyrosinase activity of α-MSH-stimulated B16F10 cells [8] | Inhibition of cellular tyrosinase compared with arbutin (500 μM) [8] | Melanin content of α-MSH-stimulated B16F10 cells [9] | Inhibition of melanin content compared with arbutin (500 μM) [9] | Type of inhibition, L-DOPA ([10]; substrate L-DOPA) | Type of inhibition, L-Tyrosine ([10]; substrate L-tyrosine) | Cytotoxicity towards B16F10 melanoma cells (MTT) [11] | Expression of tyrosinase, TRP-1, and TRP-2 (Western blot) [12] | other results
1 | Oc1cc(O)cc(O)c1 [Phloroglucinol, phloroglucinol] | 31.5 ± 1.68 µM | > 100 µM | 1.72 ± 0.59 µM | – | – | – | – | – | – | – | – | Inhibition of mushroom tyrosinase, either substrate (in words) ([1]; L-tyrosine and L-DOPA): No significant inhibition; IC50 [1, 14]: > 400 µM; IC50 [1, 15]: 251 ± 5.52 µM
2 | CC1=C(/C=C/C(C)=C/C=C/C(C)=C/CO)C(C)(C)CCC1 [retinol] | – | – | – | – | – | – | – | – | – | – | – | Inhibition of melanin synthesis [5]: 75.3%
3 | 7-phloreckol [Compound 7-phloreckol] | – | – | – | – | – | – | – | – | – | – | – | Melanin content of IBMX-treated cells [6]: significantly and dose-dependently reduced the melanin content
4 | Cc1c(C)c2c(c(C)c1O)CCC(C)(C(=O)O)O2 (centres unmarked) [Trolox, reference compound] | 18.4 ± 0.7 µM | – | – | – | – | – | – | – | – | – | – | –
5 | Oc1cc(O)cc(Oc2c(O)cc(O)c3c2Oc2c(O)cc(Oc4c(O)cc(Oc5c(O)cc(O)c6c5Oc5c(O)cc(O)cc5O6)cc4O)cc2O3)c1 [Dieckol] | – | – | – | – | – | – | – | – | – | – | – | Tyrosinase inhibitory activity [7]: 88.9%
6 | Oc1cc(O)cc(Oc2c(O)cc(O)c3c2oc2cc(O)c4c(c23)Oc2c(O)cc(O)c(Oc3cc(O)cc(O)c3-c3c(O)cc(O)cc3Oc3c(O)cc(O)cc3Oc3c(O)cc(O)cc3O)c2O4)c1 [Compound 974-A, 974-A] | 6.29 ± 0.34 µM | 0.92 ± 0.11 µM | 0.26 ± 0.06 µM | reduced the cellular melanin content and tyrosinase activity | as active | reduced the cellular melanin content | comparable to arbutin | Competitive | Competitive | none of them exhibited significant cytotoxicity up to 100 μM | downregulated the expression of melanogenesis enzymes; also recorded: dose-dependently attenuated the expression of tyrosinase, TRP-1, and TRP-2 | IC50 [1, 14]: 3.56 ± 0.22 µM; IC50 [1, 15]: 1.57 ± 0.08 µM; Ki [10, 16]: 3.33 µM; Ki [10, 17]: 0.69 µM
7 | Oc1cc(O)cc(Oc2c(O)cc(O)c3c2Oc2c(O)cc(O)cc2O3)c1 [Eckol, eckol] | 5.01 ± 0.19 µM | 1.63 ± 0.65 µM | 0.73 ± 0.07 µM | reduced the cellular melanin content and tyrosinase activity | as active | reduced the cellular melanin content | more effective than arbutin | Non-competitive | Non-competitive | none of them exhibited significant cytotoxicity up to 100 μM | downregulated the expression of melanogenesis enzymes; also recorded: dose-dependently attenuated the expression of TYR, TRP-1, and TRP-2 | Melanin levels and tyrosinase at a cellular level [13]: dose-dependently reduce melanin levels and inhibit tyrosinase at a cellular level; IC50 [1, 18]: 29.6 ± 0.48 µM; IC50 [1, 19]: 9.12 ± 0.36 µM; Ki [10, 16]: 28.5 µM; Type of inhibition, L-DOPA ([10]; substrate L-DOPA, listed as eckol): non-competitive; Ki [10, 17]: 8.6 µM; Type of inhibition, L-Tyrosine ([10]; substrate L-tyrosine, listed as eckol): non-competitive
8 | Oc1cc(O)cc(Oc2c(O)cc(O)c3c2Oc2c(O)cc4oc5c(Oc6cc(O)cc(O)c6)c(O)cc(O)c5c4c2O3)c1 [Phlorofucofuroeckol-A, phlorofucofuroeckol-A] | 12.9 ± 0.95 µM | 1.92 ± 0.09 µM | 0.85 ± 0.1 µM | reduced the cellular melanin content and tyrosinase activity | more potent | reduced the cellular melanin content | comparable to arbutin | Non-competitive | Non-competitive | none of them exhibited significant cytotoxicity up to 100 μM | downregulated the expression of melanogenesis enzymes; also recorded: dose-dependently attenuated the expression of TYR, TRP-1, and TRP-2 | IC50 [1, 18]: 8.14 ± 0.29 µM; IC50 [1, 19]: 3.42 ± 0.01 µM; Ki ([10]; Ki Value, L-DOPA, substrate L-DOPA): 7.14 µM; Ki ([10]; Ki Value, L-Tyrosine, substrate L-tyrosine): 2.7 µM; Type of inhibition, L-DOPA ([10]; substrate L-DOPA, listed as phlorofucofuroeckol-A): non-competitive; Type of inhibition, L-Tyrosine ([10]; substrate L-tyrosine, listed as phlorofucofuroeckol-A): non-competitive
9 | CC(C)(S)C(N)C(=O)O (stereo in doubt) [Penicillamine, L-penicillamine, reference compound] | – | – | 1.07 ± 0.21 µM | – | – | – | – | – | – | – | – | –
10 | O=C1O[C@H]([C@@H](O)CO)C(O)=C1O [Ascorbic acid, L-ascorbic acid, reference compound] | – | 0.69 ± 0.04 µM | – | – | – | – | – | – | – | – | – | –

— article PMC6720259, “Phlorotannins with Potential Anti-Tyrosinase and Antioxidant Activity Isolated from the Marine Seaweed Ecklonia stolonifera” (Antioxidants, 2019)
